Assay results as given in the supplement of paper PMC11208160.

Experiment: recombinant UMI read abundance after kanamycin selection (control-corrected) (log10(CPM+1)); higher = more efficient recombination; extreme values may be limits of the assay; sequences stand for … in AGTGCAGAGAAAATCGGCCAGTTTTCTCTGCCTGCAGTCCGCATGCCGTGGGACCCCTTGGGTTCTAACCTGTTGCCTAGATTTATGCAGCGGACTGCCTTTCTCCCAAAGTGATAAACCGG…AGGTTGGTTTCACT; site = the 11-nt donor
In short: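 Counts of recombinant UMIs were reported as log10(CPM+1). Before that, they were converted to CPM, averaged over replicates and scaled using control-derived factors. They came from PCR across the donor–target junction after Escherichia coli carrying the pair library and target plasmid was plated on IPTG (0.07 mM) plus kanamycin, or unselected, in two replicates each.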
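Further: IS621 bridge recombinase in Escherichia coli cells against a fixed T5 target plasmid.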

GAGCTCACATGGACCGGTTTTCCCGGTAATCCGTATTTGAC (site GAGCTCACTCT)
recombinant UMI read abundance (log10): 0.476

GAGCTCACATGGACCGGTTTTCCCGGTAATCCGTATTTGAC (site GAGCTCACTGT)
recombinant UMI read abundance (log10): 2.53

GAGCTCACATGGACCGGTTTTCCCGGTAATCCGTATTTGAC (site GAGCTCACTTT)
recombinant UMI read abundance (log10): 0.00766

GAGCTCACATGGACCGGTTTTCCCGGTAATCCGTATTTGTT (site GAGCTCACTAA)
recombinant UMI read abundance (log10): 1.53

GAGCTCACATGGACCGGTTTTCCCGGTAATCCGTATTTGTT (site GAGCTCACTAC)
recombinant UMI read abundance (log10): 0.0125

GAGCTCACATGGACCGGTTTTCCCGGTAATCCGTATTTGTT (site GAGCTCACTAG)
recombinant UMI read abundance (log10): 2.34

GAGCTCACATGGACCGGTTTTCCCGGTAATCCGTATTTGTT (site GAGCTCACTAT)
recombinant UMI read abundance (log10): 1.08

GAGGATGCATGGACCGGTTTTCCCGGTAATCCGTATTTGTA (site GAGGATGCTTA)
recombinant UMI read abundance (log10): 2.8

GAGGCTACATGGACCGGTTTTCCCGGTAATCCGTATTTGTG (site GAGGCTACTCA)
recombinant UMI read abundance (log10): 1.4

GAGGGTACATGGACCGGTTTTCCCGGTAATCCGTATTTGGC (site GAGGGTACTGC)
recombinant UMI read abundance (log10): 2.1

GAGGTACCATGGACCGGTTTTCCCGGTAATCCGTATTTGTA (site GAGGTACCTTA)
recombinant UMI read abundance (log10): 0.00435

GAGGTATCATGGACCGGTTTTCCCGGTAATCCGTATTTGCT (site GAGGTATCTAG)
recombinant UMI read abundance (log10): 2.57

GAGGTCACATGGACCGGTTTTCCCGGTAATCCGTATTTGAT (site GAGATCACTAT)
recombinant UMI read abundance (log10): 1.36

GAGGTCACATGGACCGGTTTTCCCGGTAATCCGTATTTGAT (site GAGCTCACTAT)
recombinant UMI read abundance (log10): 0.00889

GAGGTCACATGGACCGGTTTTCCCGGTAATCCGTATTTGAT (site GAGGTCACTAT)
recombinant UMI read abundance (log10): 1.35

GAGGTCACATGGACCGGTTTTCCCGGTAATCCGTATTTGAT (site GAGTTCACTAT)
recombinant UMI read abundance (log10): 0

GAGTATCCATGGACCGGTTTTCCCGGTAATCCGTATTTGCT (site GAATATCCTAG)
recombinant UMI read abundance (log10): 0

GAGTATCCATGGACCGGTTTTCCCGGTAATCCGTATTTGCT (site GACTATCCTAG)
recombinant UMI read abundance (log10): 0.506

GAGTATCCATGGACCGGTTTTCCCGGTAATCCGTATTTGCT (site GAGTATCCTAG)
recombinant UMI read abundance (log10): 0.75

GAGTATCCATGGACCGGTTTTCCCGGTAATCCGTATTTGCT (site GATTATCCTAG)
recombinant UMI read abundance (log10): 0

GAGTCCTCATGGACCGGTTTTCCCGGTAATCCGTATTTGCC (site GAGTCCTCTGG)
recombinant UMI read abundance (log10): 0

GAGTCGACATGGACCGGTTTTCCCGGTAATCCGTATTTGGG (site AAGTCGACTCC)
recombinant UMI read abundance (log10): 0.257

GAGTCGACATGGACCGGTTTTCCCGGTAATCCGTATTTGGG (site CAGTCGACTCC)
recombinant UMI read abundance (log10): 0.0177

GAGTCGACATGGACCGGTTTTCCCGGTAATCCGTATTTGGG (site GAGTCGACTCC)
recombinant UMI read abundance (log10): 0.044

GAGTCGACATGGACCGGTTTTCCCGGTAATCCGTATTTGGG (site TAGTCGACTCC)
recombinant UMI read abundance (log10): 0.0071

GAGTGCCCATGGACCGGTTTTCCCGGTAATCCGTATTTGCC (site GAGTGCCCTGG)
recombinant UMI read abundance (log10): 0

GAGTTTCCATGGACCGGTTTTCCCGGTAATCCGTATTTGCG (site GAGTTTCCTCG)
recombinant UMI read abundance (log10): 0.572

GATAATCCATGGACCGGTTTTCCCGGTAATCCGTATTTGCT (site GATAATCCTAG)
recombinant UMI read abundance (log10): 0

GATAATCCATGGACCGGTTTTCCCGGTAATCCGTATTTGCT (site GATCATCCTAG)
recombinant UMI read abundance (log10): 0

GATAATCCATGGACCGGTTTTCCCGGTAATCCGTATTTGCT (site GATGATCCTAG)
recombinant UMI read abundance (log10): 0

GATAATCCATGGACCGGTTTTCCCGGTAATCCGTATTTGCT (site GATTATCCTAG)
recombinant UMI read abundance (log10): 0

GATACGTCATGGACCGGTTTTCCCGGTAATCCGTATTTGGT (site GATACGTCTAC)
recombinant UMI read abundance (log10): 1.36

GATAGAACATGGACCGGTTTTCCCGGTAATCCGTATTTGGC (site GATAGAACTGC)
recombinant UMI read abundance (log10): 1.7

GATAGAACATGGACCGGTTTTCCCGGTAATCCGTATTTGGC (site GCTAGAACTGC)
recombinant UMI read abundance (log10): 0

GATAGAACATGGACCGGTTTTCCCGGTAATCCGTATTTGGC (site GGTAGAACTGC)
recombinant UMI read abundance (log10): 0

GATAGAACATGGACCGGTTTTCCCGGTAATCCGTATTTGGC (site GTTAGAACTGC)
recombinant UMI read abundance (log10): 0

GATCAGACATGGACCGGTTTTCCCGGTAATCCGTATTTGAA (site GATCAGACTTT)
recombinant UMI read abundance (log10): 0.431

GATCAGCCATGGACCGGTTTTCCCGGTAATCCGTATTTGCC (site GATCAGCCTGG)
recombinant UMI read abundance (log10): 0.649

GATCAGCCATGGACCGGTTTTCCCGGTAATCCGTATTTGGT (site GATCAGCCTAC)
recombinant UMI read abundance (log10): 0.00497

GATCGGACATGGACCGGTTTTCCCGGTAATCCGTATTTGAC (site GATAGGACTGT)
recombinant UMI read abundance (log10): 0

GATCGGACATGGACCGGTTTTCCCGGTAATCCGTATTTGAC (site GATCGGACTGT)
recombinant UMI read abundance (log10): 1.11

GATCGGACATGGACCGGTTTTCCCGGTAATCCGTATTTGAC (site GATGGGACTGT)
recombinant UMI read abundance (log10): 0

GATCGGACATGGACCGGTTTTCCCGGTAATCCGTATTTGAC (site GATTGGACTGT)
recombinant UMI read abundance (log10): 0

GATCTCACATGGACCGGTTTTCCCGGTAATCCGTATTTGAT (site GAACTCACTAT)
recombinant UMI read abundance (log10): 0.831

GATCTCACATGGACCGGTTTTCCCGGTAATCCGTATTTGAT (site GACCTCACTAT)
recombinant UMI read abundance (log10): 0.0659

GATCTCACATGGACCGGTTTTCCCGGTAATCCGTATTTGAT (site GAGCTCACTAT)
recombinant UMI read abundance (log10): 0.00697

GATCTCACATGGACCGGTTTTCCCGGTAATCCGTATTTGAT (site GATCTCACTAT)
recombinant UMI read abundance (log10): 0.574

GATCTTCCATGGACCGGTTTTCCCGGTAATCCGTATTTGAT (site GATCTTCCTAT)
recombinant UMI read abundance (log10): 0.048

GATGCAACATGGACCGGTTTTCCCGGTAATCCGTATTTGAT (site GATGCAACTAT)
recombinant UMI read abundance (log10): 0.357

GATGTAGCATGGACCGGTTTTCCCGGTAATCCGTATTTGCG (site GATGTAGCTCG)
recombinant UMI read abundance (log10): 1.72

GATGTGTCATGGACCGGTTTTCCCGGTAATCCGTATTTGAA (site GATGTGTCTTT)
recombinant UMI read abundance (log10): 2.22

GATGTTGCATGGACCGGTTTTCCCGGTAATCCGTATTTGCT (site GATGTTGCTAG)
recombinant UMI read abundance (log10): 2.51

GATTAAACATGGACCGGTTTTCCCGGTAATCCGTATTTGCG (site GATTAAACTCG)
recombinant UMI read abundance (log10): 0.992

GATTAGACATGGACCGGTTTTCCCGGTAATCCGTATTTGAC (site GATTAGACTGT)
recombinant UMI read abundance (log10): 2.76

GATTAGACATGGACCGGTTTTCCCGGTAATCCGTATTTGAC (site GATTCGACTGT)
recombinant UMI read abundance (log10): 0

GATTAGACATGGACCGGTTTTCCCGGTAATCCGTATTTGAC (site GATTGGACTGT)
recombinant UMI read abundance (log10): 0

GATTAGACATGGACCGGTTTTCCCGGTAATCCGTATTTGAC (site GATTTGACTGT)
recombinant UMI read abundance (log10): 0

GATTATGCATGGACCGGTTTTCCCGGTAATCCGTATTTGGA (site AATTATGCTTC)
recombinant UMI read abundance (log10): 0.871

GATTATGCATGGACCGGTTTTCCCGGTAATCCGTATTTGGA (site CATTATGCTTC)
recombinant UMI read abundance (log10): 1.13

GATTATGCATGGACCGGTTTTCCCGGTAATCCGTATTTGGA (site GATTATGCTTC)
recombinant UMI read abundance (log10): 0.861

GATTATGCATGGACCGGTTTTCCCGGTAATCCGTATTTGGA (site TATTATGCTTC)
recombinant UMI read abundance (log10): 0.882

GATTCATCATGGACCGGTTTTCCCGGTAATCCGTATTTGAG (site GATTCATCTCT)
recombinant UMI read abundance (log10): 1.31

GATTGGCCATGGACCGGTTTTCCCGGTAATCCGTATTTGCG (site GATTGGCCTCG)
recombinant UMI read abundance (log10): 0.115

GATTGTACATGGACCGGTTTTCCCGGTAATCCGTATTTGAC (site GATTGAACTGT)
recombinant UMI read abundance (log10): 0

GATTGTACATGGACCGGTTTTCCCGGTAATCCGTATTTGAC (site GATTGCACTGT)
recombinant UMI read abundance (log10): 0

GATTGTACATGGACCGGTTTTCCCGGTAATCCGTATTTGAC (site GATTGGACTGT)
recombinant UMI read abundance (log10): 0

GATTGTACATGGACCGGTTTTCCCGGTAATCCGTATTTGAC (site GATTGTACTGT)
recombinant UMI read abundance (log10): 0.604

GATTGTCCATGGACCGGTTTTCCCGGTAATCCGTATTTGCT (site GATTATCCTAG)
recombinant UMI read abundance (log10): 0
